Reference: patent US11613753B2, “Methods and pharmaceutical compositions for treating tubulin carboxypeptidases associated diseases” (LES LABORATOIRES SERVIER, priority 2017, dated 2023)
Entries after “also recorded” stand apart in the source; their conditions may differ.

Molecular target: T1, brain TCP (fraction IV) (Mus musculus, UniProt Q8C1W1)
T1 construct: from tissue; host or cells: adult mouse brain, fraction IV (ammonium sulfate cut, Hitrap Q XL flow-through, Hitrap SP XL eluate)
T1 sequence (Q8C1W1 1-375): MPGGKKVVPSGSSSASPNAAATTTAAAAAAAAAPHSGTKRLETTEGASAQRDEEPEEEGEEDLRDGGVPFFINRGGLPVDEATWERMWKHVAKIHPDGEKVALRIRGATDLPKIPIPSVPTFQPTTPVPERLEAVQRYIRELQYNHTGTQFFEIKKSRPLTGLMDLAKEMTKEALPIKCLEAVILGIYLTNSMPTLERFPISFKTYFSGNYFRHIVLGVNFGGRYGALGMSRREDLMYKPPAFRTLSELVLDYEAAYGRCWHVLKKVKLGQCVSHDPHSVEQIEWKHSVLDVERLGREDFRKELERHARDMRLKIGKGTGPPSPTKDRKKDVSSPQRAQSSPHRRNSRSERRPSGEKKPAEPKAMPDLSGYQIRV
T1 sequence (Q99LQ4 1-66 partner): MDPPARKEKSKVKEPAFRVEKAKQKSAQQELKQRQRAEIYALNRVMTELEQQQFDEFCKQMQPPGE
Test: TCP activity assay, radioactivity test with [14C]-tyrosinated taxol-stabilized microtubules, on enriched brain fraction IV
Format: biochemical
Conditions: FIG. 1B
Procedure: Preparation of tyrosinated tubulin and microtubule, and EB1. Bovine brain tubulin (12 mg/mL, prepared as in (S. Ramirez-Rios et al., (2016) Molecular biology of the cell 27, 2924) was tyrosinated by incubation for 45 min at 30° C. with purified chicken TTL (1 mg/mL, gift from Steinmetz group) and 0.1 mM L-tyrosine or [14C]-L-tyrosine (0.125 μCi/mole) in 40 mM Pipes at pH 6.7, 60 mM KCl, 2.5 mM ATP, 1 mM DTT, 12.5 mM MgCl2. Microtubules polymerization was allowed by one-third dilution in 100 mM PIPES at pH 6.7. 1 mM EGTA, 1 mM MgCl2, 30% glycerol, 1 mM GTP and incubation at 32° C. for 45 min, followed by another 45 min incubation with 50 μM Paclitaxel (Calbiochem). Microtubules were sedimented by 25 min centrifugation at 100,000 g and 30° C. on 60% glycerol cushions. TTL-containing supernatant was discarded and tyrosinated-microtubules were resuspended in 100 mM PIPES at pH 6.7, 1 mM EGTA, 1 mM MgCl2, 10% glycerol, 80 μM paclitaxel and stored at −20° C. To obtain unpolymerized tyrosinated-tubulin, paclitaxel was omitted during the whole procedure. EB1 was prepared as in S. Ramirez-Rios et al., (2016) Molecular biology of the cell 27, 2924.
TCP activity assays. In radioactivity tests using [14C]-tyrosinated taxol-stabilized microtubule, enzyme activity was measured in 100 mM MES at pH 6.7. 1 mM EGTA and 1 mM MgCl2 using 2 μM radiolabeled tubulin, except in FIGS. 2D and S2D (as indicated in legend). Reactions were performed for 45 min at 37° C. (without or with previous incubation with inhibitors, see legends) and were stopped on ice by addition of 20 μg/ml bovine serum albumin and 10% perchloric acid and centrifugation. Tyrosine cleaved from microtubules was estimated by measuring radioactivity in the supernatant (a zero time control was subtracted). To compose the table of Fig. S1A, detyrosination activity from equal volumes of the various fractions was measured. In tests with inhibitors, detyrosination activity was tested after a 20 min preincubation with inhibitor (except in Figs. S2C and S2) where varying time of incubation were used as indicated in legend), and results with inhibitors were expressed as percentage of the activity in the control with corresponding solvent. In tests using Western-blots, enzyme activity was assayed with 5 μM substrates (taxol-stabilized microtubule, tubulin or EB1) in 100 mM MES at pH 6.7. Positive controls were done with carboxypeptidase A (2 ng/mL). Reactions were stopped by addition of Laemmli buffer. A reaction with carboxypeptidase A (CPA), which efficiently cleaves aromatic and aliphatic C-terminal residues, was used as positive control. In tests using VASH/SVBP complexes purified on cobalt resin from HEK293T cells, enzymes concentration were approximated from in-gel Coomassie-blue staining of purified VASH1 and VASH2 together with standards of bovine serum albumin.
Enzyme enrichment. We designed a three-step purification procedure from brain lysate inspired from previous efforts (N. Kumar, M. Flavin, (1981) The Journal of biological chemistry 256, 7678; C. E. Argarana, H. S. Barra, R. Caputto, (1980) Journal of neurochemistry 34, 114). All steps were carried out at 4° C. Adult mice brains were homogenized in 50 mM phosphate buffer at pH 6.7, 1 mM EGTA, 1 mM MgCl2, 1 μg/ml DNAse with a protease inhibitor cocktail (cOmplete EDTA-free, Roche) and centrifuged 1 h at 100.000 g. The supernatant was collected (Fraction 1). In step 1 (ammonium sulfate fractionation), Fraction 1 was slowly brought to 45% ammonium sulfate, incubated for 15 min and centrifuged 20 min at 15,000 g. Resulting supernatant underwent the same procedure at 65% ammonium sulfate. The pellet was re-suspended in one-eighth of initial volume with 50 mM MES pH 6.7, 1 mM EGTA, 1 mM MgCl2 and desalted using Bio-Gel P30 (Bio-Rad) equilibrated with the same buffer (Fraction 11). […]

Row | Compound | Inhibition of brain TCP activity (in words) | IC50 (20 min preincubation with inhibitor, read-out: IC50, inhibition of TCP activity) [µM] | IC50, inhibition of TCP activity (20 min preincubation with inhibitor) [µM]
1 | NCCc1ccc(S(=O)(=O)F)cc1 [AEBSF] | inhibited |  | 
2 | CCN1C(=O)C=CC1=O [N-Ethylmaleimide] | inhibited |  | 
3 | CCOC(=O)[C@H]1O[C@@H]1C(=O)N[C@@H](Cc1ccc(O)cc1)C(=O)O [EpoY] | most potent inhibitor | ~0.5 | 
4 | CC(C)C[C@H](NC(=O)[C@H]1O[C@@H]1C(=O)O)C(=O)NCCCCN=C(N)N [E-64] | inhibited; also recorded: modest inhibitory activity |  | 300
